Counter-ions that a name gives are not always drawn.
Test: RP, Waters ACQUITY Premier BEH C18, 100 × 2.1 mm, 1.7 µm, 40 °C, 0.3 to 0.4 mL/min, estimated dead time 0.73 min; A: water + 0.1% formic acid; B: acetonitrile + 0.1% formic acid; gradient (min/%B) 0/0.5 0.1/0.5 10/80 10.1/99.5 12/0.5 12.1/0.5 14.5/0.5
Conditions: stereoisomer not certain

| SMILES | LC retention time |
| --- | --- |
| O=C(O)c1cc(=O)c2ccccc2[nH]1 [KYNURENATE] | 4.18 min |
| Nc1ccccc1C(=O)CC(N)C(=O)O (stereo not drawn) [KYNURENINE] | 3.62 min |
| CC(C)CC1NC(=O)C2CCCN2C1=O [L,L-CYCLO(LEUCYLPROLYL)] | 4.92 min |
| N[C@@H](Cc1ccc(O)c(O)c1)C(=O)O [L-DOPA] | 1.7 min |
| O=C(O)C[C@H](NC(=O)Cc1c[nH]c2ccccc12)C(=O)O [L-N-(1H-INDOL-3-YLACETYL)ASPARTIC ACID] | 4.39 min |
| CCCCCCCC(=O)OC(CC(=O)[O-])C[N+](C)(C)C [L-OCTANOYLCARNITINE] | 5.76 min |
| CCNC(=O)CC[C@H](N)C(=O)O [L-THEANINE] | 0.897 min |
| NC(=O)[C@@H](N)Cc1c[nH]c2ccccc12 [L-TRYPTOPHANAMIDE] | 3.9 min |
| C[N+](C)(C)C(Cc1c[nH]c2ccccc12)C(=O)[O-] (stereo not drawn) [LENTICIN] | 3.64 min |
| CC1(C)OC2CC(=O)OCC23C1CC(=O)C1(C)C3CCC2(C)C(c3ccoc3)OC(=O)C3OC321 (stereo not drawn) [LIMONIN] | 6.87 min |
| CCCCCC=CCC=CCCCCCCCC(=O)O [LINOLEATE] | 7.75 min |
| NC(Cc1cc(I)c(Oc2ccc(O)c(I)c2)c(I)c1)C(=O)O (stereo not drawn) [LIOTHYRONINE] | 6.23 min |
| NC(=O)CCCCC1CCSS1 (stereo not drawn) [LIPOAMIDE] | 5.5 min |
| CC(CCC(=O)O)C1CCC2C3CCC4CC(O)CCC4(C)C3CCC12C (stereo not drawn) [LITHOCHOLATE] | 8.27 min |
| CC(CCC(=O)NCC(=O)O)C1CCC2C3CCC4CC(O)CCC4(C)C3CCC12C (stereo not drawn) [LITHOCHOLIC ACID GLYCINE CONJUGATE] | 7.62 min |
| CC(CCC(=O)NCCS(=O)(=O)O)C1CCC2C3CCC4CC(O)CCC4(C)C3CCC12C (stereo not drawn) [LITHOCHOLYLTAURINE] | 7.55 min |
| Cc1cc2nc3[nH]c(=O)[nH]c(=O)c3nc2cc1C [LUMICHROME] | 5.49 min |
| O=c1cc(-c2ccc(O)c(O)c2)oc2cc(OC3OC(CO)C(O)C(O)C3O)cc(O)c12 (stereo not drawn) [LUTEOLIN-7-GLUCOSIDE] | 4.44 min |
| O=c1cc(-c2ccc(O)c(O)c2)oc2cc(O)cc(O)c12 [LUTEOLIN] | 5.54 min |
| O=C(O)C=Cc1cccc(O)c1 [M-COUMARIC ACID] | 4.77 min |
| O=C(O)CC(O)C(=O)O (stereo not drawn) [MALATE] | 1.11 min |
| O=C(O)CC(=O)O [MALONATE] | 1.21 min |

| SMILES | LC retention time |
| --- | --- |
| OCC1OC(OC2C(CO)OC(OC3C(CO)OC(OC4C(CO)OC(O)C(O)C4O)C(O)C3O)C(O)C2O)C(O)C(O)C1O (stereo not drawn) [MALTOTETRAOSE] | 1.07 min |
| O=c1c2cc(O)c(O)cc2oc2cc(O)c(C3OC(CO)C(O)C(O)C3O)c(O)c12 (stereo not drawn) [MANGIFERIN] | 3.75 min |
| COc1ccc2[nH]cc(CCNC(C)=O)c2c1 [MELATONIN] | 5.57 min |
| CC(C)=CCCC(C)=CCC1=C(C)C(=O)c2ccccc2C1=O [MENAQUINONE] | 10.8 min |
| CC(CC(=O)O)CC(=O)O [METHYGLUTARATE] | 4.05 min |
| COC(=O)CCCN [METHYL 4-AMINOBUTYRATE] | 1.4 min |
| COC(=O)C=Cc1ccccc1 [METHYL CINNAMATE] | 7.95 min |
| CCC=CCC1C(=O)CCC1CC(=O)OC (stereo not drawn) [METHYL JASMONATE] | 7.43 min |
| COC(=O)c1ccc(O)cc1 [METHYLPARABEN] | 5.79 min |
| CC(CC(=O)O)C(=O)O (stereo not drawn) [METHYLSUCCINIC ACID] | 3.75 min |
| CC1(O)CCOC(=O)C1 (stereo not drawn) [MEVALOLACTONE] | 3.33 min |
| CC(O)(CCO)CC(=O)O (stereo not drawn) [MEVALONATE] | 2.75 min |
| COC(=O)CCCC(=O)O [MONOMETHYLGLUTARATE] | 3.95 min |
| O=c1c(O)c(-c2ccc(O)cc2O)oc2cc(O)cc(O)c12 [MORIN] | 5.82 min |
| CC1OC(Oc2c(-c3cc(O)c(O)c(O)c3)oc3cc(O)cc(O)c3c2=O)C(O)C(O)C1O (stereo not drawn) [MYRICITRIN] | 4.4 min |
| Cn1cc(C(N)=O)ccc1=O [N1-METHYL-2-PYRIDONE-5-CARBOXAMIDE] | 1.12 min |
| CC(C)=CCNc1ncnc2nc[nH]c12 [N6-(DELTA2-ISOPENTENYL)-ADENINE] | 4.63 min |
| CC(=O)NCCC(=O)O [N-ACETYL-BETA-ALANINE] | 1.03 min |
| CC(=O)NC(C)C(=O)O (stereo not drawn) [N-ACETYLALANINE] | 2.4 min |
| CC(=O)NC(CC(N)=O)C(=O)O (stereo not drawn) [N-ACETYLASPARAGINE] | 1.1 min |
| CC(=O)NC(CC(=O)O)C(=O)O (stereo not drawn) [N-ACETYLASPARTATE] | 1.41 min |
| CC(=O)NC(CS)C(=O)O (stereo not drawn) [N-ACETYLCYSTEINE] | 4 min |

| SMILES | LC retention time |
| --- | --- |
| CC(=O)NC(CCC(=O)O)C(=O)O (stereo not drawn) [N-ACETYLGLUTAMATE] | 2.2 min |
| CC(=O)NCC(=O)O [N-ACETYLGLYCINE] | 1.26 min |
| CC(=O)NCCc1cnc[nH]1 [N-ACETYLHISTAMINE] | 0.998 min |
| CC(=O)NC(CC(C)C)C(=O)O (stereo not drawn) [N-ACETYLLEUCINE] | 4.88 min |
| CSCCC(NC(C)=O)C(=O)O (stereo not drawn) [N-ACETYLMETHIONINE] | 4.21 min |
| CC(=O)NC1C(O)OC(CO)C(O)C1OC(C)C(=O)O (stereo not drawn) [N-ACETYLMURAMATE] | 1.09 min |
| CC(=O)NC1C(O)CC(O)(C(=O)O)OC1C(O)C(O)CO (stereo not drawn) [N-ACETYLNEURAMINATE] | 0.9 min |
| CC(=O)NC(Cc1ccccc1)C(=O)O (stereo not drawn) [N-ACETYLPHENYLALANINE] | 5.18 min |
| CC(=O)N1CCCC1C(=O)O (stereo not drawn) [N-ACETYLPROLINE] | 3.77 min |
| CC(=O)NCCCCN [N-ACETYLPUTRESCINE] | 0.96 min |
| CC(=O)NC(CO)C(=O)O (stereo not drawn) [N-ACETYLSERINE] | 1.12 min |
| CC(=O)NCCc1c[nH]c2ccc(O)cc12 [N-ACETYLSEROTONIN] | 4.42 min |
| CC(=O)NC(Cc1c[nH]c2ccccc12)C(=O)O (stereo not drawn) [N-ACETYLTRYPTOPHAN] | 5.31 min |
| CCNC(=O)C1CC(C)CCC1C(C)C (stereo not drawn) [N-ETHYL-5-METHYL-2-(1-METHYLETHYL)-CYCLOHEXANECARBOXAMIDE] | 7.41 min |
| CSCC[C@H](NC=O)C(=O)O [N-FORMYL-L-METHIONINE] | 4.06 min |
| O=CNCC(=O)O [N-FORMYLGLYCINE] | 0.962 min |
| O=CNC(Cc1ccccc1)C(=O)O (stereo not drawn) [N-FORMYLPHENYLALANINE] | 4.77 min |
| CNC(=O)c1cccnc1 [N-METHYLNICOTINAMIDE] | 1.05 min |
| CNCCc1c[nH]c2ccccc12 [N-METHYLTRYPTAMINE] | 4.45 min |
| O=C(O)CCCCCCCCCCCO [OMEGA-HYDROXYDODECANOATE] | 6.99 min |

Next, values leading:

| LC retention time | SMILES |
| --- | --- |
| 4.7 min | CC1OC(OC2C(Oc3cc(O)c4c(c3)OC(c3ccc(O)cc3)CC4=O)OC(CO)C(O)C2O)C(O)C(O)C1O (stereo not drawn) [NARINGIN] |
| 4.59 min | CC1OC(OCC2OC(Oc3cc(O)c4c(c3)OC(c3ccc(O)cc3)CC4=O)C(O)C(O)C2O)C(O)C(O)C1O (stereo not drawn) [NARIRUTIN] |
| 2.02 min | NC(=O)c1ccc[n+](C2OC(COP(=O)(O)OP(=O)(O)OCC3OC(n4cnc5c(=O)[nH]cnc54)C(O)C3O)C(O)C2O)c1 (stereo not drawn) [NICOTINAMIDE HYPOXANTHINE DINUCLEOTIDE] |
| 0.959 min | NC(=O)c1ccc[n+](C2OC(COP(=O)([O-])O)C(O)C2O)c1 (stereo not drawn) [NICOTINAMIDE MONONUCLEOTIDE] |
| 1.42 min | O=C(O)c1cccnc1 [NICOTINATE] |
| 6.99 min | COc1ccc(-c2cc(=O)c3c(OC)c(OC)c(OC)c(OC)c3o2)cc1OC [NOBILETIN] |
| 7.05 min | CC(=O)OC1CC(=O)OC(C)(C)C2CC(=O)C3(C)C(CCC4(C)C(c5ccoc5)OC(=O)C5OC543)C12C (stereo not drawn) [NOMILIN] |
| 0.887 min | NCC(O)c1ccc(O)c(O)c1 (stereo not drawn) [NORADRENALINE] |
| 7.12 min | O=c1c(O)c(-c2ccccc2)oc2cc(O)cc(O)c12 [NORIZALPININ] |
| 2.79 min | CCCCC(N)C(=O)O (stereo not drawn) [NORLEUCINE] |
| 7.25 min | CC(CCC(=O)O)C1CCC2C3C(=O)CC4CC(O)CCC4(C)C3CCC12C (stereo not drawn) [NUTRIACHOLIC ACID] |
| 1.48 min | CC(=O)OC(CC(=O)O)C[N+](C)(C)C (stereo not drawn) [O-ACETYLCARNITINE] |
| 1.68 min | NC(CCOC(=O)CCC(=O)O)C(=O)O (stereo not drawn) [O-SUCCINYL-HOMOSERINE] |
| 9.52 min | CCCCCCCCC=CCCCCCCCC(=O)OCC(O)CO (stereo not drawn) [OLEOYL-GLYCEROL] |
| 5.05 min | CC=C1C(OC2OC(CO)C(O)C(O)C2O)OC=C(C(=O)OC)C1CC(=O)OCCc1ccc(O)c(O)c1 (stereo not drawn) [OLEUROPEIN] |
| 2.03 min | CCC(NC(=O)CCC(N)C(=O)O)C(=O)NCC(=O)O (stereo not drawn) [OPHTHALMATE] |
| 5.18 min | O=c1cc(-c2ccc(O)c(O)c2)oc2c(C3OC(CO)C(O)C(O)C3O)c(O)cc(O)c12 (stereo not drawn) [ORIENTIN] |
| 1.19 min | O=C(O)c1cc(=O)[nH]c(=O)[nH]1 [OROTATE] |
| 4.97 min | O=C(O)Cc1ccccc1O [ORTHO-HYDROXYPHENYLACETIC ACID] |
| 2.2 min | O=C(O)CCCC(=O)C(=O)O [OXOADIPATE] |
| 1.3 min | O=C(O)CCC(=O)C(=O)O [OXOGLUTARATE] |
| 4.57 min | Cc1ccc(OS(=O)(=O)O)cc1 [P-CRESOL SULFATE] |
| 2.48 min | O=C(O)C(O)c1ccc(O)cc1 (stereo not drawn) [P-HYDROXYMANDELIC ACID] |
| 8.15 min | CCCCCCC=CCCCCCCCC(=O)O [PALMITOLEIC ACID] |
| 8.84 min | CCCCCCCCCCCCCCCC(=O)NCCO [PALMITOYLETHANOLAMIDE] |
| 3.72 min | CC(C)(CO)C(O)C(=O)NCCC(=O)O (stereo not drawn) [PANTOTHENATE] |
| 3.95 min | Cn1c(=O)[nH]c2ncn(C)c2c1=O [PARAXANTHINE] |
| 10 min | CCCCCCCCCCCC=CCCCCC(=O)O [PETROSELINATE] |
| 1.17 min | O=S(=O)(O)Oc1ccccc1 [PHENOL SULFATE] |

Reference: the RepoRT retention time repository
